Source: PubChem BioAssay AID2060883 (Molecular Pharmacology Branch, DTP, NCI, 2025)

System: 843782-103-R-J1-PDC complex spheroid viability
Assay: Anticancer human tumor 843782-103-R-J1-PDC patient-derived lung adenocarcinoma cell line growth inhibition [RAS]
Settings: for viability, T/C: stronger effect = lower value
How it was run: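 Agents were tested in combination matrices in half-log decrements from a top concentration at or near clinical Cmax (10 microM if undetermined). Targets were multi-cell spheroids of tumour lines plus HUVEC and MSC stromal cells.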

[1] = curve of first compound, second compound 0.000949 µM
[2] = curve of first compound, second compound 0.003 µM
[3] = curve of first compound, second compound 0.00949 µM
[4] = curve of first compound, second compound 0.03 µM
[5] = curve of first compound, second compound 0.0949 µM
[6] = curve of first compound, second compound 0.3 µM
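Also: viability read after seven days of compound exposure.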

SMILES: CC1(C)CCC(Nc2ncc(C(F)(F)F)c(-c3c[nH]c4c(P(C)(C)=O)c(C#N)ccc34)n2)CN1 (stereo not drawn) + CCn1c(-c2cc(N3CCN(C)CC3)cnc2C(C)OC)c2c3cc(ccc31)-c1csc(n1)CC(NC(=O)C1CC1C)C(=O)N1CCCC(N1)C(=O)OCC(C)(C)C2
- IC50 [1]: 5.42 nM
- IC50 [2]: 2.24 nM
- IC50 [3]: < 0.949 nM
- IC50 [4]: < 0.949 nM
- IC50 [5]: < 0.949 nM
- IC50 [6]: < 0.949 nM
- viability, T/C (second compound 0.000949 µM, first compound 0.000949 µM): 72.5%
- viability, T/C (second compound 0.000949 µM, first compound 0.003 µM): 68.5%
- viability, T/C (second compound 0.000949 µM, first compound 0.00949 µM): 32.6%
- viability, T/C (second compound 0.000949 µM, first compound 0.03 µM): 14.2%
- viability, T/C (second compound 0.000949 µM, first compound 0.0949 µM): 12%
- viability, T/C (second compound 0.000949 µM, first compound 0.3 µM): 11.8%
- viability, T/C (second compound 0.003 µM, first compound 0.000949 µM): 60.5%
- viability, T/C (second compound 0.003 µM, first compound 0.003 µM): 46.6%
- viability, T/C (second compound 0.003 µM, first compound 0.00949 µM): 22.8%
- viability, T/C (second compound 0.003 µM, first compound 0.03 µM): 14.1%
- viability, T/C (second compound 0.003 µM, first compound 0.0949 µM): 11.1%
- viability, T/C (second compound 0.003 µM, first compound 0.3 µM): 11%
- viability, T/C (second compound 0.00949 µM, first compound 0.000949 µM): 39.2%
- viability, T/C (second compound 0.00949 µM, first compound 0.003 µM): 29.3%
- viability, T/C (second compound 0.00949 µM, first compound 0.00949 µM): 18.7%
- viability, T/C (second compound 0.00949 µM, first compound 0.03 µM): 10.5%
- viability, T/C (second compound 0.00949 µM, first compound 0.0949 µM): 12.1%
- viability, T/C (second compound 0.00949 µM, first compound 0.3 µM): 10.9%
- viability, T/C (second compound 0.03 µM, first compound 0.000949 µM): 20.1%
- viability, T/C (second compound 0.03 µM, first compound 0.003 µM): 21.7%
- viability, T/C (second compound 0.03 µM, first compound 0.00949 µM): 14.5%
- viability, T/C (second compound 0.03 µM, first compound 0.03 µM): 12.2%
- viability, T/C (second compound 0.03 µM, first compound 0.0949 µM): 10.5%
- viability, T/C (second compound 0.03 µM, first compound 0.3 µM): 9.54%
- viability, T/C (second compound 0.0949 µM, first compound 0.000949 µM): 18.7%
- viability, T/C (second compound 0.0949 µM, first compound 0.003 µM): 18.2%
- viability, T/C (second compound 0.0949 µM, first compound 0.00949 µM): 14.1%
- viability, T/C (second compound 0.0949 µM, first compound 0.03 µM): 12.2%
- viability, T/C (second compound 0.0949 µM, first compound 0.0949 µM): 10.3%
- viability, T/C (second compound 0.0949 µM, first compound 0.3 µM): 10.3%
- viability, T/C (second compound 0.3 µM, first compound 0.000949 µM): 14.5%
- viability, T/C (second compound 0.3 µM, first compound 0.003 µM): 14.3%
- viability, T/C (second compound 0.3 µM, first compound 0.00949 µM): 11.9%
- viability, T/C (second compound 0.3 µM, first compound 0.03 µM): 11.7%
- viability, T/C (second compound 0.3 µM, first compound 0.0949 µM): 11.5%
- viability, T/C (second compound 0.3 µM, first compound 0.3 µM): 10.1%

SMILES: CC(=O)OC12COC1CC(O)C1(C)C(=O)C(O)C3=C(C)C(OC(=O)C(O)C(NC(=O)OC(C)(C)C)c4ccccc4)CC(O)(C(OC(=O)c4ccccc4)C21)C3(C)C (stereo not drawn)
- viability, T/C (compound 0.0316 µM): 3.82% [middle of 4 runs]
- viability, T/C (compound 0.1 µM): 4.87% [middle of 4 runs]
- viability, T/C (compound 0.316 µM): 5.01% [middle of 4 runs]
- viability, T/C (compound 1 µM): 4.69% [middle of 4 runs]
- viability, T/C (compound 3.16 µM): 6.26% [middle of 4 runs]
- viability, T/C (compound 10 µM): 8.18% [middle of 4 runs]
- IC50 (curve of compound): < 31.6 nM

SMILES: CCn1c(-c2cc(N3CCN(C)CC3)cnc2C(C)OC)c2c3cc(ccc31)-c1csc(n1)CC(NC(=O)C1CC1C)C(=O)N1CCCC(N1)C(=O)OCC(C)(C)C2 (stereo not drawn)
- viability, T/C (compound 0.000949 µM): 85.8% [middle of 8 runs]
- viability, T/C (compound 0.003 µM): 65.7% [middle of 8 runs]
- viability, T/C (compound 0.00949 µM): 37.1% [middle of 8 runs]
- viability, T/C (compound 0.03 µM): 22.4% [middle of 8 runs]
- viability, T/C (compound 0.0949 µM): 17.1% [middle of 8 runs]
- viability, T/C (compound 0.3 µM): 14.2% [middle of 8 runs]
- IC50 (compound alone, run of 08/26/2024): 5.72 nM [middle of 8 runs]

SMILES: CC(=O)OC12COC1CC(O)C1(C)C(=O)C(O)C3=C(C)C(OC(=O)C(O)C(NC(=O)OC(C)(C)C)c4ccccc4)CC(O)(C(OC(=O)c4ccccc4)C21)C3(C)C (stereo not drawn) + CCn1c(-c2cc(N3CCN(C)CC3)cnc2C(C)OC)c2c3cc(ccc31)-c1csc(n1)CC(NC(=O)C1CC1C)C(=O)N1CCCC(N1)C(=O)OCC(C)(C)C2
- IC50 [1]: < 31.6 nM
- IC50 [2]: < 31.6 nM
- IC50 [3]: < 31.6 nM
- IC50 [4]: < 31.6 nM
- IC50 [5]: < 31.6 nM
- IC50 [6]: < 31.6 nM
- viability, T/C (second compound 0.000949 µM, first compound 0.0316 µM): 4.09%
- viability, T/C (second compound 0.000949 µM, first compound 0.1 µM): 3.3%
- viability, T/C (second compound 0.000949 µM, first compound 0.316 µM): 4.43%
- viability, T/C (second compound 0.000949 µM, first compound 1 µM): 4.14%
- viability, T/C (second compound 0.000949 µM, first compound 3.16 µM): 4.74%
- viability, T/C (second compound 0.000949 µM, first compound 10 µM): 5.86%
- viability, T/C (second compound 0.003 µM, first compound 0.0316 µM): 3.09%
- viability, T/C (second compound 0.003 µM, first compound 0.1 µM): 3.12%
- viability, T/C (second compound 0.003 µM, first compound 0.316 µM): 3.99%
- viability, T/C (second compound 0.003 µM, first compound 1 µM): 3.29%
- viability, T/C (second compound 0.003 µM, first compound 3.16 µM): 6.91%
- viability, T/C (second compound 0.003 µM, first compound 10 µM): 8.55%
- viability, T/C (second compound 0.00949 µM, first compound 0.0316 µM): 4.74%
- viability, T/C (second compound 0.00949 µM, first compound 0.1 µM): 4.97%
- viability, T/C (second compound 0.00949 µM, first compound 0.316 µM): 5.9%
- viability, T/C (second compound 0.00949 µM, first compound 1 µM): 4.93%
- viability, T/C (second compound 0.00949 µM, first compound 3.16 µM): 5.8%
- viability, T/C (second compound 0.00949 µM, first compound 10 µM): 8.1%
- viability, T/C (second compound 0.03 µM, first compound 0.0316 µM): 5.08%
- viability, T/C (second compound 0.03 µM, first compound 0.1 µM): 4.74%
- viability, T/C (second compound 0.03 µM, first compound 0.316 µM): 7.03%
- viability, T/C (second compound 0.03 µM, first compound 1 µM): 5.84%
- viability, T/C (second compound 0.03 µM, first compound 3.16 µM): 6.77%
- viability, T/C (second compound 0.03 µM, first compound 10 µM): 7.36%
- viability, T/C (second compound 0.0949 µM, first compound 0.0316 µM): 6.75%
- viability, T/C (second compound 0.0949 µM, first compound 0.1 µM): 7.55%
- viability, T/C (second compound 0.0949 µM, first compound 0.316 µM): 6%
- viability, T/C (second compound 0.0949 µM, first compound 1 µM): 8.09%
- viability, T/C (second compound 0.0949 µM, first compound 3.16 µM): 7.2%
- viability, T/C (second compound 0.0949 µM, first compound 10 µM): 7.32%
- viability, T/C (second compound 0.3 µM, first compound 0.0316 µM): 6.51%
- viability, T/C (second compound 0.3 µM, first compound 0.1 µM): 6.53%
- viability, T/C (second compound 0.3 µM, first compound 0.316 µM): 8.66%
- viability, T/C (second compound 0.3 µM, first compound 1 µM): 8.26%
- viability, T/C (second compound 0.3 µM, first compound 3.16 µM): 9.04%
- viability, T/C (second compound 0.3 µM, first compound 10 µM): 7.8%
